The record followed here is US20210188775A1, “CARBOXAMIDE AND SULFONAMIDE DERIVATIVES USEFUL AS TEAD MODULATORS” (Genentech, Inc., priority 2018, published 2021).

Holding throughout (assay type): binding
One assay has as its target TEAD2 (Homo sapiens, UniProt Q15562). The experiment in a line: Lipid HTRF TEAD2.
Another assay addresses TEAD1 (Homo sapiens, UniProt P28347). As to the kind of experiment: Lipid HTRF TEAD1.
Another assay addresses TEAD4 (Homo sapiens, UniProt Q15561). The experiment in a line: Lipid HTRF TEAD4.
Another assay has as its target TEAD3 (Homo sapiens, UniProt Q99594). As to the kind of experiment: Lipid HTRF TEAD3.

Chain of TEAD4 (Q15561 whole entry, species assumed): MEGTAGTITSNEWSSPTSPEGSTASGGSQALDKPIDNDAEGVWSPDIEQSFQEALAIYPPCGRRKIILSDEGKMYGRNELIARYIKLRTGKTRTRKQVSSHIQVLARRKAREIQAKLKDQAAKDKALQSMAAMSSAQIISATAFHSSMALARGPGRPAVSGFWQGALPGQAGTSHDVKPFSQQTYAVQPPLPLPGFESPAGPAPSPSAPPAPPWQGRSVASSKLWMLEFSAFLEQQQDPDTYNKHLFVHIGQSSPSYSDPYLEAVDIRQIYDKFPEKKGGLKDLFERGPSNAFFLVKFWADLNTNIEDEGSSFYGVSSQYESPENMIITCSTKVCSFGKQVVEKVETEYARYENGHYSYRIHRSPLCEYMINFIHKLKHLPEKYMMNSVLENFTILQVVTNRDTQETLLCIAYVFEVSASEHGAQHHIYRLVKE
Chain of TEAD1 (P28347 whole entry, species assumed): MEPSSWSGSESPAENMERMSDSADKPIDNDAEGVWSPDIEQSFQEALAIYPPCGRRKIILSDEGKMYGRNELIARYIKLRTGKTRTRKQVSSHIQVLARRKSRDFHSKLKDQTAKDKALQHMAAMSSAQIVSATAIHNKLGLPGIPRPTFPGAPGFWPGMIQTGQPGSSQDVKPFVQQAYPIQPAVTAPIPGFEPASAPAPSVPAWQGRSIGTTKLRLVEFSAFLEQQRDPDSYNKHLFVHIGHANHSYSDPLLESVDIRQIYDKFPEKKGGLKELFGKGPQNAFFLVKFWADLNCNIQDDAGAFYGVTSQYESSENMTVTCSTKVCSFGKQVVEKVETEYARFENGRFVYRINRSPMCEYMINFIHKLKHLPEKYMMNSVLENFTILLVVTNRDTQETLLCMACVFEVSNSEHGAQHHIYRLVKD
Chain of TEAD2 (Q15562 whole entry, species assumed): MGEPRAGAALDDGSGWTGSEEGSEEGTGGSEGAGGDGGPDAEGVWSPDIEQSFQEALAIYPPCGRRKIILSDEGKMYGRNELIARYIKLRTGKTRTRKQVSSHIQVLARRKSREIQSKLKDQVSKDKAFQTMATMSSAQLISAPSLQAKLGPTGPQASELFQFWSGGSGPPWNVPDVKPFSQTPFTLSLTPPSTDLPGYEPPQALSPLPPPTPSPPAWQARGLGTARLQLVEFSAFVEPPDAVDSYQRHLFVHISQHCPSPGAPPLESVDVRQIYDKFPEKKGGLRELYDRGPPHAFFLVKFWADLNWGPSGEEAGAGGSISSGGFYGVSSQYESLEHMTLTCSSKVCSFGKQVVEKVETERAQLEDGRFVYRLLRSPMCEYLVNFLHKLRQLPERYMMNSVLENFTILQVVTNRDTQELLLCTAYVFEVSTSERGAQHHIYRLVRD
Chain of TEAD3 (Q99594 whole entry, species assumed): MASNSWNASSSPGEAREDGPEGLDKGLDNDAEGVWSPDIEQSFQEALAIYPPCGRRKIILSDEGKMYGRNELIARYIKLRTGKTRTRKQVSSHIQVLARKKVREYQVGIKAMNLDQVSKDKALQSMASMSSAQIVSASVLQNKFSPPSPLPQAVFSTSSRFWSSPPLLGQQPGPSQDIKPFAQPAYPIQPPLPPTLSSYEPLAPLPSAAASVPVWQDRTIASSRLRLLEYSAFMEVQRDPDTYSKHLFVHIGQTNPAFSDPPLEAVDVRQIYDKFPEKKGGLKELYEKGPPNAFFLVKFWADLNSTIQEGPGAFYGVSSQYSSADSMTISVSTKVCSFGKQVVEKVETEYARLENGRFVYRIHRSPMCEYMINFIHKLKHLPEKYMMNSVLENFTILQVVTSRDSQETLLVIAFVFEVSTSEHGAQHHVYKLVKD

As for `CNC(=O)Cc1cccc(CNC(=O)c2cc(/C=C/[C@H]3CC[C@H](C(F)(F)F)CC3)c(OC)cn2)c1` [Compound 57B, 5-methoxy-N-(3-(2-(methylamino)-2-oxoethyl)benzyl)-4-((E)-2-(trans-4-(trifluoromethyl)cyclohexyl)vinyl) picolinamide], the half-inhibitory concentration (IC50) was determined as 17 nM against TEAD2, 128 nM on TEAD1, 19 nM on TEAD4 and 298 nM on TEAD3.

In the case of `C=CS(=O)(=O)Nc1cnc(OC)c(/C=C/C2CCC(F)(F)CC2)c1` [Compound 58, N-[5-[(E)-2-(4,4-difluorocyclohexyl)vinyl]-6-methoxy-3-pyridyl]ethenesulfonamide], the IC50 at TEAD2 turned out to be 10 nM; at TEAD1, 34 nM; against TEAD4 it was 8 nM; at TEAD3 it was 34 nM.
